Entries after “also recorded” stand apart in the source; their conditions may differ.
Legend:
chronic mild stress rats = test: Chronic mild stress model in rats, serum marker analysis; details: CMS rats; for reversal of stress-induced alterations in serum markers: versus non-stressed controls;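 for all read-outs here: terminal serum drawn from the tail of rats 24 h after the final drug dose, profiled within a panel of roughly 60 blood markers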
Protocol: At the end of the present study, terminal serum samples were collected for marker analysis to evaluate the effects of stress with and without drug on the levels of about 60 blood markers.
Serum samples were withdrawn from the tail, without stunning, during the daytime (09:00-17:00) 24 hrs after the last drug injection. Blood was collected into BD vacutainers containing clot activator and gel for serum preparation, inverted 5 times and maintained on ice until centrifugation at 3000 rpm for 10 min at 4° C. Serum was decanted, placed on ice, and at the end of the day stored at −80° C.

formalin pain model = details: U.S. Patent Application Publication No. 2005/0288371; cited from earlier work
[1] = 1st study, 5 mg/kg, serum, median
[2] = 2nd study, 10 mg/kg, serum, median

With `CN(C)CCC[C@@]1(c2ccc(F)cc2)OCc2cc(C#N)ccc21` [ESC, Escitalopram, reference compound] the “Apo A1 (Apolipoprotein A1)” value (chronic mild stress rats; [1]) was 8.40 µg/mL, the “CRP (C Reactive Protein)” value (chronic mild stress rats; [1]) was 1060.00 µg/mL and the Eotaxin (chronic mild stress rats; [1]) was 1300.00 pg/mL. For the same compound, the “FGF-9 (Fibroblast Growth Factor-9)” value (chronic mild stress rats; [1]) was 0.90 ng/mL, the “GCP-2 (Granulocyte Chemotactic Protein-2)” value (chronic mild stress rats; [1]) was 0.21 ng/mL and the “Growth Hormone” value (chronic mild stress rats; [1]) was 1.38 ng/mL. The “IL-1alpha (Interleukin-1alpha)” value (chronic mild stress rats; [1]) was 15.40 pg/mL, the “IL-2 (Interleukin-2)” value (chronic mild stress rats; [1]) was 38.80 pg/mL and the “IL-4 (Interleukin-4)” value (chronic mild stress rats; [1]) was 51.70 pg/mL. The “IL-7 (Interleukin-7)” value (chronic mild stress rats; [1]) was 0.22 ng/mL, the “IL-10 (Interleukin-10)” value (chronic mild stress rats; [1]) was 317.00 pg/mL and the “IL-11 (Interleukin-11)” value (chronic mild stress rats; [1]) was 166.00 pg/mL. For the same compound, the “IP-10 (Inducible Protein-10)” value (chronic mild stress rats; [1]) was 194.00 pg/mL, the “IgA (Immunoglobulin A)” value (chronic mild stress rats; [1]) was 6.54 µg/mL and the Insulin (chronic mild stress rats; [1]) was 11.30 ulU/mL. For the same compound, the “LIF (Leukemia Inhibitory Factor)” value (chronic mild stress rats; [1]) was 67.20 pg/mL, the Leptin (chronic mild stress rats; [1]) was 2.62 ng/mL and the Lymphotactin (chronic mild stress rats; [1]) was 68.00 pg/mL. The “M-CSF (Macrophage-Colony Stimulating Factor)” value (from here on “M-CSF”) (chronic mild stress rats; [1]) was 941.00 ng/mL, the “MCP-1 (Monocyte Chemoattractant Protein-1)” value (chronic mild stress rats; [1]) was 1500.00 pg/mL and the “MCP-3 (Monocyte Chemoattractant Protein-3)” value (chronic mild stress rats; [1]) was 885.00 pg/mL. The “MCP-5 (Monocyte Chemoattractant Protein-5)” value (chronic mild stress rats; [1]) was 0.87 pg/mL, the “MIP-1alpha (Macrophage Inflammatory Protein-1alpha)” value (“MIP-1alpha” below) (chronic mild stress rats; [1]) was 244.00 ng/mL and the “MIP-1gamma (Macrophage Inflammatory Protein-1gamma)” value (“MIP-1gamma” below) (chronic mild stress rats; [1]) was 11.50 ng/mL. For the same compound, the “MIP-2 (Macrophage Inflammatory Protein-2)” value (chronic mild stress rats; [1]) was 0.09 pg/mL, the “MPO (Myeloperoxidase)” value (chronic mild stress rats; [1]) was 54.60 ng/mL and the “NGAL (Lipocalin-2)” value (chronic mild stress rats; [1]) was 0.22 ng/mL. The Osteopontin (chronic mild stress rats; [1]) was 310.00 ng/mL, the “SAP (Serum Amyloid P)” value (chronic mild stress rats; [1]) was 178.00 µg/mL and the “SCF (Stem Cell Factor)” value (chronic mild stress rats; [1]) was 16.95 pg/mL. For the same compound, the “SGOT (Serum Glutamic-Oxaloacetic Transaminase)” value (“SGOT” below) (chronic mild stress rats; [1]) was 0.31 µg/mL, the “TIMP-1 (Tissue Inhibitor of Metalloproteinase Type-1)” value (chronic mild stress rats; [1]) was 0.22 ng/mL and the “TPO (Thrombopoietin)” value (chronic mild stress rats; [1]) was 142.00 ng/mL. For the same compound, the “Tissue Factor” value (chronic mild stress rats; [1]) was 0.15 ng/mL, the “VCAM-1 (Vascular Cell Adhesion Molecule-1)” value (chronic mild stress rats; [1]) was 409.00 ng/mL and the “VEGF (Vascular Endothelial Cell Growth Factor)” value (“VEGF” below) (chronic mild stress rats; [1]) was 106.00 pg/mL. For the same compound, the “reversal of stress-induced alterations in serum markers” value (chronic mild stress rats) was “inactive at most of these changes”.

For `Oc1noc2c1CCNC2` [GBX, 4,5,6,7-tetrahydroisoxazolo [5,4-c] pyridine-3-ol], the “pain response in phase 2 of the formalin pain model” value (formalin pain model) is given as “inhibit the pain response in phase 2”, the “Apo A1 (Apolipoprotein A1)” value (chronic mild stress rats; [1]) is given as 8.20 µg/mL and the “CRP (C Reactive Protein)” value (chronic mild stress rats; [1]) is given as 1140.00 µg/mL. The Cystatin-C (chronic mild stress rats; [1]) was 1165.00 ng/mL, the “FGF-9 (Fibroblast Growth Factor-9)” value (chronic mild stress rats; [1]) was 0.59 ng/mL and the “GCP-2 (Granulocyte Chemotactic Protein-2)” value (chronic mild stress rats; [1]) was 0.19 ng/mL. For the same compound, the “Growth Hormone” value (chronic mild stress rats; [1]) was 7.67 ng/mL, the “IL-1alpha (Interleukin-1alpha)” value (chronic mild stress rats; [1]) was 11.30 pg/mL and the “IL-2 (Interleukin-2)” value (chronic mild stress rats; [1]) was 31.30 pg/mL. The “IL-4 (Interleukin-4)” value (chronic mild stress rats; [1]) was 29.60 pg/mL, the “IL-7 (Interleukin-7)” value (chronic mild stress rats; [1]) was 0.16 ng/mL and the “IL-10 (Interleukin-10)” value (chronic mild stress rats; [1]) was 249.00 pg/mL. The “IL-11 (Interleukin-11)” value (chronic mild stress rats; [1]) was 128.00 pg/mL, the “IL-18 (Interleukin-18)” value (chronic mild stress rats; [1]) was 0.07 ng/mL and the “IP-10 (Inducible Protein-10)” value (chronic mild stress rats; [1]) was 138.00 pg/mL. The “IgA (Immunoglobulin A)” value (chronic mild stress rats; [1]) was 5.91 µg/mL, the Insulin (chronic mild stress rats; [1]) was 8.88 ulU/mL and the “LIF (Leukemia Inhibitory Factor)” value (chronic mild stress rats; [1]) was 53.90 pg/mL. The Leptin (chronic mild stress rats; [1]) was 2.59 ng/mL, the Lymphotactin (chronic mild stress rats; [1]) was 53.80 pg/mL and the “M-CSF” value (chronic mild stress rats; [1]) was 865.00 ng/mL. For the same compound, the “MCP-1 (Monocyte Chemoattractant Protein-1)” value (chronic mild stress rats; [1]) was 1185.00 pg/mL, the “MCP-3 (Monocyte Chemoattractant Protein-3)” value (chronic mild stress rats; [1]) was 655.00 pg/mL and the “MCP-5 (Monocyte Chemoattractant Protein-5)” value (chronic mild stress rats; [1]) was 0.77 pg/mL. For the same compound, the “MIP-1alpha” value (chronic mild stress rats; [1]) was 173.00 ng/mL, the “MIP-1gamma” value (chronic mild stress rats; [1]) was 7.95 ng/mL and the “MIP-2 (Macrophage Inflammatory Protein-2)” value (chronic mild stress rats; [1]) was 0.08 pg/mL. The “MPO (Myeloperoxidase)” value (chronic mild stress rats; [1]) was 20.80 ng/mL, the “NGAL (Lipocalin-2)” value (chronic mild stress rats; [1]) was 0.17 ng/mL and the Osteopontin (chronic mild stress rats; [1]) was 396.00 ng/mL. The “SAP (Serum Amyloid P)” value (chronic mild stress rats; [1]) was 133.00 µg/mL, the “SCF (Stem Cell Factor)” value (chronic mild stress rats; [1]) was 14.85 pg/mL and the “SGOT” value (chronic mild stress rats; [1]) was 0.21 µg/mL. For the same compound, the “TIMP-1 (Tissue Inhibitor of Metalloproteinase Type-1)” value (chronic mild stress rats; [1]) was 0.16 ng/mL, the “TPO (Thrombopoietin)” value (chronic mild stress rats; [1]) was 147.00 ng/mL and the “Tissue Factor” value (chronic mild stress rats; [1]) was 0.10 ng/mL. For the same compound, the “VCAM-1 (Vascular Cell Adhesion Molecule-1)” value (chronic mild stress rats; [1]) was 361.00 ng/mL, the “VEGF” value (chronic mild stress rats; [1]) was 81.00 pg/mL and the “Apo A1 (Apolipoprotein A1)” value (chronic mild stress rats; [2]) was 6.20 µg/mL. The “Beta-2 Microglobulin” value (chronic mild stress rats; [2]) was 38.00 µg/mL, the “CRP (C Reactive Protein)” value (chronic mild stress rats; [2]) was 1030.00 µg/mL and the Clusterin (chronic mild stress rats; [2]) was 108.00 µg/mL. The Cystatin-C (chronic mild stress rats; [2]) was 696.00 ng/mL, the Eotaxin (chronic mild stress rats; [2]) was 1072.00 pg/mL and the “FGF-9 (Fibroblast Growth Factor-9)” value (chronic mild stress rats; [2]) was 1.70 ng/mL. The “Factor VII” value (chronic mild stress rats; [2]) was 0.30 ng/mL, the “GCP-2 (Granulocyte Chemotactic Protein-2)” value (chronic mild stress rats; [2]) was 0.29 ng/mL and the GST-Mu (chronic mild stress rats; [2]) was 1190.00 ng/mL. For the same compound, the “Growth Hormone” value (chronic mild stress rats; [2]) was 3.10 ng/mL, the “IL-1beta (Interleukin-1beta)” value (chronic mild stress rats; [2]) was 0.56 ng/mL and the “IL-2 (Interleukin-2)” value (chronic mild stress rats; [2]) was 22.00 pg/mL. For the same compound, the “IL-5 (Interleukin-5)” value (chronic mild stress rats; [2]) was 0.24 ng/mL, the “IL-7 (Interleukin-7)” value (chronic mild stress rats; [2]) was 0.06 ng/mL and the “IL-10 (Interleukin-10)” value (chronic mild stress rats; [2]) was 362.00 pg/mL. The “IL-18 (Interleukin-18)” value (chronic mild stress rats; [2]) was 0.43 ng/mL, the “IP-10 (Inducible Protein-10)” value (chronic mild stress rats; [2]) was 41.00 pg/mL and the “IgA (Immunoglobulin A)” value (chronic mild stress rats; [2]) was 4.30 µg/mL. The Insulin (chronic mild stress rats; [2]) was 14.50 ulU/mL, the “LIF (Leukemia Inhibitory Factor)” value (chronic mild stress rats; [2]) was 67.00 pg/mL and the Leptin (chronic mild stress rats; [2]) was 1.35 ng/mL. For the same compound, the Lymphotactin (chronic mild stress rats; [2]) was 63.00 pg/mL, the “M-CSF” value (chronic mild stress rats; [2]) was 1400.00 ng/mL and the “MCP-1 (Monocyte Chemoattractant Protein-1)” value (chronic mild stress rats; [2]) was 1020.00 pg/mL. For the same compound, the “MCP-3 (Monocyte Chemoattractant Protein-3)” value (chronic mild stress rats; [2]) was 659.00 pg/mL, the “MCP-5 (Monocyte Chemoattractant Protein-5)” value (chronic mild stress rats; [2]) was 0.72 pg/mL and the “MDC (Macrophage-Derived Chemokine)” value (chronic mild stress rats; [2]) was 0.12 pg/mL. The “MIP-1alpha” value (chronic mild stress rats; [2]) was 127.00 ng/mL, the “MIP-1beta (Macrophage Inflammatory Protein-1beta)” value (chronic mild stress rats; [2]) was 0.01 pg/mL and the “MIP-1gamma” value (chronic mild stress rats; [2]) was 19.00 ng/mL. The “MIP-2 (Macrophage Inflammatory Protein-2)” value (chronic mild stress rats; [2]) was 0.22 pg/mL, the “MIP-3beta (Macrophage Inflammatory Protein-3beta)” value (chronic mild stress rats; [2]) was 29.70 ng/mL and the “MPO (Myeloperoxidase)” value (chronic mild stress rats; [2]) was 533.00 ng/mL. For the same compound, the Myoglobin (chronic mild stress rats; [2]) was 520.00 ng/mL, the “NGAL (Lipocalin-2)” value (chronic mild stress rats; [2]) was 0.15 ng/mL and the “OSM (Oncostatin M)” value (chronic mild stress rats; [2]) was 19.10 ng/mL. The Osteopontin (chronic mild stress rats; [2]) was 255.00 ng/mL, the “RANTES (Regulation Upon Activation, Normal T-Cell Expressed and Secreted)” value (chronic mild stress rats; [2]) was 10.60 pg/mL and the “SAP (Serum Amyloid P)” value (chronic mild stress rats; [2]) was 403.00 µg/mL. For the same compound, the “SCF (Stem Cell Factor)” value (chronic mild stress rats; [2]) was 11.30 pg/mL, the “SGOT” value (chronic mild stress rats; [2]) was 8.53 µg/mL and the “TIMP-1 (Tissue Inhibitor of Metalloproteinase Type-1)” value (chronic mild stress rats; [2]) was 0.24 ng/mL. The “TNF-alpha (Tumor Necrosis Factor-alpha)” value (chronic mild stress rats; [2]) was 4.45 ng/mL, the “TPO (Thrombopoietin)” value (chronic mild stress rats; [2]) was 119.00 ng/mL and the “Tissue Factor” value (chronic mild stress rats; [2]) was 0.06 ng/mL. The “VCAM-1 (Vascular Cell Adhesion Molecule-1)” value (chronic mild stress rats; [2]) was 353.00 ng/mL, the “VEGF” value (chronic mild stress rats; [2]) was 78.00 pg/mL and the “reversal of stress-induced alterations in serum markers” value (chronic mild stress rats; listed as gaboxadol) was “significantly reversed the stress-induced alterations in serum markers; also recorded: dose dependently is able to reverse or partially reverse changes”.

Source: patent publication US20070203216A1, “METHOD OF TREATING INFLAMMATORY DISEASES” (priority 2006, published 2007)
